Patent publication US20220356174A1, “PYRIDIN-2-ONE COMPOUNDS USEFUL AS SMARCA2 ANTAGONISTS” (Epizyme, Inc., priority 2018, published 2022)
Like-named read-outs stand apart in the source and are kept apart here.

Key:
H358 cells = experiment: High-throughput proliferation (HTP) assay for H358 cells (CellTiter-Glo, 7 days); assay type: cell-based; conditions: Homo sapiens, NCI-H358, 168 h, read-out: H358 SMARCA2 IC50
Method: Thawing vials: H358 cells (ATCC #CRL-5807™) were thawed from a cryovial containing approximately 1.6×10^6 cells frozen in 70% RPMI 1640 medium, 20% HI-FBS and 10% DMSO. Cells were thawed by submerging the bottom half of the vial in a 37° C. water bath and gently flicked until almost thawed. The cells were removed and transferred into a 15 mL conical tube containing 9 mL RPMI 1640 medium+10% HI-FBS and then centrifuged 200×g for 4 min before drawing off the media without disturbing the cell pellet to remove the DMSO. The cells were resuspended again in 15 mL of RPMI 1640 fresh complete media+10% HI-FBS and grown up in a T75 flask at 37° C. with 5% CO2 Incubator. Viability was measured to obtain baseline.
Preparing frozen stock vials: Cell density was counted in a stock flask. The culture was transferred to a 50 mL conical tube and spun down to remove medium, and then resuspend at 1-2×10^6 cells/mL in complete medium containing 10% DMSO and transferred to a 1 mL per vial.
(§1) Routine subculture: Sub-confluent cultures (70-80%) were split every 4 days, seeding out at 1-2×10^6 cells/75 cm^2.
Day 0: Assay ready plates were prepared by dispensing 50 nL of compound stock or DMSO in the appropriate wells of 384-well white CulturPlates using Echo550. Using the Multiflo, H358 cells at 50 μL/well were plated in RPMI 1640 complete media+10% HI-FBS+1% pen/strep at cell density determined [20,000 cells/mL (1,000 cells/well)] from growth curve. Treated cells were inclubated at 37° C., 5% CO2, relative humidity >90% for 7 days. CellTiter-Glo (CTG) ATP detection reagent was prepared according to manufacturer's specifications. Cell assay plates were removed from incubator and bring to room temperature (RT).
Using the MultiDrop liquid handler, 30 μL of CTG were added per well. Plates were placed on the multidrop dispenser shake for 5 seconds at RT. Plates were incubated for 30 minutes in the dark at RT before measuring luminescence using the Envison2104.
Data analysis: Using the DMSO control wells as the 0% inhibition (high signal) control and the 10 uM Doxorubicin control wells as the 100% inhibition (low signal) control, percent inhibition EC50s (inflection point) and IC50s were calculated for the compound dose responses.

[1] = biological target: T1, FL-SMARCA2 (full-length human SMARCA2 isoform 1) (Homo sapiens, UniProt P51531); experiment: SMARCA2 ATPase activity assay (ADP-Glo, chicken mononucleosome substrate); assay type: biochemical; conditions: ATPase assay, enzyme 5 nM, ATP 250 uM, chicken mononucleosome 10 nM, 30 min preincubation
T1 construct: FLAG tag (YKDDDDK) (C); made in house; host or cells: Sf21 insect cells (baculovirus, pFastBacI)
T1 sequence (P51531 with tags, fused parts or gaps): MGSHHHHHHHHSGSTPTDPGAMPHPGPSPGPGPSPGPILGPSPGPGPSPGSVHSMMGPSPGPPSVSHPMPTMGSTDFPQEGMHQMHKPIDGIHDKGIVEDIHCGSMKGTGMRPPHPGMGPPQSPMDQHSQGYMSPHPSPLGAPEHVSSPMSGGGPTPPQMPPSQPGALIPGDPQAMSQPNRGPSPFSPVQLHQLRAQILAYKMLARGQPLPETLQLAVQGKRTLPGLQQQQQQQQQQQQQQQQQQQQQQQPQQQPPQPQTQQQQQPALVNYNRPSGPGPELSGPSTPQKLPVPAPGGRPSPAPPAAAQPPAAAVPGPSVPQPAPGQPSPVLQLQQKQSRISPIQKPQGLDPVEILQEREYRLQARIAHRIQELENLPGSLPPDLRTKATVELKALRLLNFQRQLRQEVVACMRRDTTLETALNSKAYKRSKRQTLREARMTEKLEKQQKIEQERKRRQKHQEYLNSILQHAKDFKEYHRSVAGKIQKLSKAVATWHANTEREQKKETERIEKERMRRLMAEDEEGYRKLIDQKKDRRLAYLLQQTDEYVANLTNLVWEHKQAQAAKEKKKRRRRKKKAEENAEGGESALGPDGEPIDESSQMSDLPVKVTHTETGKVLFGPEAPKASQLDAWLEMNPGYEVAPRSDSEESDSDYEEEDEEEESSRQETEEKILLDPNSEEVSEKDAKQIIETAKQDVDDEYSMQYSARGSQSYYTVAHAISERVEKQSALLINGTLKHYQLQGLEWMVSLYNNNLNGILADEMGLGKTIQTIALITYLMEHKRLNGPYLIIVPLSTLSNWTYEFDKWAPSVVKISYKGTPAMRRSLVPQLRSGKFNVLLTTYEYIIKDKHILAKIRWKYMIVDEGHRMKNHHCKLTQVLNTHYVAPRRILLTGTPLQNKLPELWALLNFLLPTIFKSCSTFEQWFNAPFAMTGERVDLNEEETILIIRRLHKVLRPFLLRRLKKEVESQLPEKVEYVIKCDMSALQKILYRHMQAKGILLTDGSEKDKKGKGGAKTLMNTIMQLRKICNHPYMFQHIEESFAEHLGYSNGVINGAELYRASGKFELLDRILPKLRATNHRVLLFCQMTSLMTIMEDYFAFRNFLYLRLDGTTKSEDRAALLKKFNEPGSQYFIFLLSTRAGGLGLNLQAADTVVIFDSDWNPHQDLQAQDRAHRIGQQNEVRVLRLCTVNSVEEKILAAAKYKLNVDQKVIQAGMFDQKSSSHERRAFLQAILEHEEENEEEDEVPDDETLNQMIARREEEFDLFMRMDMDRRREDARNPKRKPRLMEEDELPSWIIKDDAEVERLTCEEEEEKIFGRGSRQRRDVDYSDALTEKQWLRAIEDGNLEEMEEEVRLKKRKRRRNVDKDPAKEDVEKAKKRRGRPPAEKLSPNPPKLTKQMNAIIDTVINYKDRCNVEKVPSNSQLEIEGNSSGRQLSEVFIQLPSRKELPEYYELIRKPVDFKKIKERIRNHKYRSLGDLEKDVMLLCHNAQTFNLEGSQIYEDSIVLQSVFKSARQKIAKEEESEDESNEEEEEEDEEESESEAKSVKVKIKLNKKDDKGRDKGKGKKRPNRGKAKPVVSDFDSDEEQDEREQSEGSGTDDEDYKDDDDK

A549 cells = experiment: High-throughput proliferation (HTP) assay for A549 cells (CellTiter-Glo, 7 days); assay type: cell-based; conditions: Homo sapiens, 168 h, read-out: A549 SMARCA2 IC50
Method: Thawing vials: A549 cells (ATCC #CCL-185™) were thawed from a cryovial containing approximately 1.6×10^6 cells frozen in 70% F12K medium, 20% HI-FBS and 10% DMSO. Cells were thawed by submerging the bottom half of the vial in a 37° C. water bath and gently flicked until almost thawed. The cells were transferred into a 15 mL conical tube containing 9 mL of F12K medium+10% HI-FBS and then centrifuged at 200×g for 4 min before drawing off the media without disturbing the cell pellet in order to remove the DMSO. The cells were resuspended again in 15 mL of F12K fresh complete media+10% HI-FBS and grown up in a T75 flask at 37° C. with 5% CO2 Incubator. Viability was measured to obtain baseline.
Frozen stock vials preparation: The cell culture was transferred to a 50 mL conical tube, spun down to remove medium, and resuspended at 1-2×10^6 cells/mL in complete medium containing 10% DMSO. The culture was then stored for 24 hours at −80 degree C., (with the initial rate of freezing is −1 degree C. per minute in a freezing container), then transferred and stored in liquid nitrogen.
as §1
Day 0: Assay ready plates were prepared by dispensing 50 nL of compound or DMSO in the appropriate wells of 384-well white CulturPlates using Echo550. Using the Multiflo, A549 cells were plated at 50 μL/well in F12K complete media+10% HI-FBS+1% pen/strep at cell density determined [1,250 cells/mL (62.5 cells/well)] from growth curve.
Treated cells were incubated at 37° C., 5% CO2, relative humidity >90% for 7 days. CellTiter-Glo (CTG) ATP detection reagent was prepared according to manufacturer's specifications. Cell assay plates were removed from the incubator and brought to room temperature (RT). Using the MultiDrop liquid handler, 30 μL of CTG were added per well. Plates were placed on the multidrop dispenser shake for 5 seconds at room temperature (RT). Plates were incubated for 30 minutes in the dark at RT before measuring luminescence using the Envison2104.
Data analysis: Using the DMSO control wells as the 0% inhibition (high signal) control and the 10 μM Doxorubicin control wells as the 100% inhibition (low signal) control, percent inhibition EC50s (inflection point) and IC50 s were calculated for the compound dose responses.

FL-SMARCA4 = FL-SMARCA4 (Homo sapiens, UniProt P51532); experiment: SMARCA4 ATPase activity assay (ADP-Glo, chicken mononucleosome substrate)
Sequence of FL-SMARCA4 (P51532 whole entry): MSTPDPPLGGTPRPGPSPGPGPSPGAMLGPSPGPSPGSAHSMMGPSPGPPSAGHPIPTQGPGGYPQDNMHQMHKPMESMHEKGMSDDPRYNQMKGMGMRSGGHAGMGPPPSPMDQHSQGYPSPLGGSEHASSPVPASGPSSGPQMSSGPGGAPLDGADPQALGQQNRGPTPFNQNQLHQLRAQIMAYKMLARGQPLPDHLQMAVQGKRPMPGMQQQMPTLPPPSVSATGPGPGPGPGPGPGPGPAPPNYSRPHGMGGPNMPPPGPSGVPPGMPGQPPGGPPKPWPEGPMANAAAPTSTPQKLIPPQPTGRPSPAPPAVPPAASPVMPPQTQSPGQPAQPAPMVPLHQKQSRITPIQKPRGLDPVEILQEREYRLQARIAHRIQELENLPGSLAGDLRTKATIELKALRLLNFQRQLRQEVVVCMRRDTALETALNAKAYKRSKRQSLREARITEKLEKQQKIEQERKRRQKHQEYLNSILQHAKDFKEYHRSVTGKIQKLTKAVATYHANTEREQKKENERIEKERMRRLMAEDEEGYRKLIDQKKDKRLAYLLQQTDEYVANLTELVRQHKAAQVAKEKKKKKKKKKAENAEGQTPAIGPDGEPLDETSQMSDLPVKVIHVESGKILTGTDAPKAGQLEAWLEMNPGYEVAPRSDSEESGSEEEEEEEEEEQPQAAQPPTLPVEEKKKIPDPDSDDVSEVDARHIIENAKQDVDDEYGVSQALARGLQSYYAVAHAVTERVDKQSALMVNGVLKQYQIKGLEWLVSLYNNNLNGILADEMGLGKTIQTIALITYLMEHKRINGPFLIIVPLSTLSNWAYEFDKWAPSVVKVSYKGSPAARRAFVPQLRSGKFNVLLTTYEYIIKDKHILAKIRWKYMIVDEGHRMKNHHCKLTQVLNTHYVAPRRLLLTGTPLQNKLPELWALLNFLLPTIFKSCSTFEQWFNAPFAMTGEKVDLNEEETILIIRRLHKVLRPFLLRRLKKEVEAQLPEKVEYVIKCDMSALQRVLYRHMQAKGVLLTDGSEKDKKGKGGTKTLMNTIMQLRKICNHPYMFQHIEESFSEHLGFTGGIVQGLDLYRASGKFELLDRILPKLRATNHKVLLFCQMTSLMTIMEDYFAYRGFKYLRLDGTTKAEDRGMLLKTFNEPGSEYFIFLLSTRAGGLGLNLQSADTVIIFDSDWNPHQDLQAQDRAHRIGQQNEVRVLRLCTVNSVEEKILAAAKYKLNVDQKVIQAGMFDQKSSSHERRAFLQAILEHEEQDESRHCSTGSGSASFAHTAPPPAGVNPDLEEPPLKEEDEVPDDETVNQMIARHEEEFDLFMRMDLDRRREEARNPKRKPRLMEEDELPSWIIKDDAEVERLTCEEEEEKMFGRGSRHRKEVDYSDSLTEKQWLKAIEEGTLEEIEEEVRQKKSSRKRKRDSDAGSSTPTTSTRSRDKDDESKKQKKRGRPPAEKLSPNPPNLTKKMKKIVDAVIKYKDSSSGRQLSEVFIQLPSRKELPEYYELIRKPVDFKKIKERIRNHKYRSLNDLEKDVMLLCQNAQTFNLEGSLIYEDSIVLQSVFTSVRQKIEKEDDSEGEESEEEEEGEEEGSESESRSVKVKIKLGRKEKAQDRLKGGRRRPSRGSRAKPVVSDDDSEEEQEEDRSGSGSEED

[2] = Table 3d.1, read-out: FL-SMARCA2 IC>50
[3] = FL-SMARCA4 IC>50, Table 3c.2, ATPase assay, enzyme 5 nM, ATP 250 uM, chicken mononucleosome 10 nM, 30 min preincubation

Compound | IC50 (H358 cells) [nM] | IC50 [1, 2] [nM] | IC50 (A549 cells) [nM] | IC50 (FL-SMARCA4; FL-SMARCA4 IC50) [nM] | IC50 ([1]; Table 3c.1) [nM] | IC50 (FL-SMARCA4; [3]) [nM]
O=C(Nc1cc(F)c(=O)n(CC(F)F)c1)c1cc(C#CC2CCCNC2)c(Cl)s1 (stereo not shown) [Compound 108d] | > 10000 | 542 | > 10000 | 1780 | – | –
O=C1CC(C#Cc2cc(C(=O)Nc3cc(F)c(=O)n(CC(F)F)c3)sc2Cl)CN1 (stereo not shown) [Compound 116c] | > 10000 | – | 3790 | – | 206 | 548
N#Cc1cc(C(=O)Nc2cc(F)c(=O)n(CC(F)F)c2)sc1C(F)(F)Cl [Compound 78d] | > 10000 | 57.5 | 6370 | 377 | – | –
O=C(Nc1cc(F)c(=O)n(CC(F)F)c1)c1cc(C#CC2CCn3cnnc3C2)c(Cl)s1 (stereo not shown) [Compound 119d] | > 10000 | 961 | > 10000 | 2220 | – | –
CN1CCn2c(C#Cc3cc(C(=O)Nc4cc(F)c(=O)n(CC(F)F)c4)sc3Cl)cnc2C1 [Compound 66c] | > 10000 | – | > 10000 | – | 236 | 772
CS(=O)(=O)c1cccc(C#Cc2cc(C(=O)Nc3cc(F)c(=O)n(CC(F)F)c3)sc2Cl)c1 [Compound 98c] | > 10000 | – | 3300 | – | 108 | 287
CN(C)CCn1cc(C#Cc2cc(C(=O)Nc3cc(F)c(=O)n(CC(F)F)c3)sc2Cl)cn1 [Compound 123c] | > 10000 | – | 3980 | – | 471 | 1070
Cc1cnc(C#Cc2cc(C(=O)Nc3cc(F)c(=O)n(CC(F)F)c3)sc2Cl)o1 [Compound 71c] | > 10000 | – | 1950 | – | 92 | 304
O=C1CCC(C#Cc2cc(C(=O)Nc3cc(F)c(=O)n(CC(F)F)c3)sc2Cl)CN1 (stereo not shown) [Compound 153c] | 6950 | – | > 10000 | – | 211 | 439
CNC(=O)Cn1cc(C#Cc2cc(C(=O)Nc3cc(F)c(=O)n(CC(F)F)c3)sc2Cl)cn1 [Compound 121c] | > 10000 | – | > 10000 | – | 191 | 384
CC(=O)NC1COCC(C#Cc2cc(C(=O)Nc3cc(F)c(=O)n(CC(F)F)c3)sc2Cl)C1 (stereo not shown) [Compound 57d] | > 10000 | 51.6 | > 10000 | 191 | – | –
O=C(Nc1cc(F)c(=O)n(CC(F)F)c1)c1cc(C#CC2CNCCO2)c(Cl)s1 (stereo not shown) [Compound 109d] | > 10000 | 1060 | > 10000 | 3160 | – | –
COc1cccc(C#Cc2cc(C(=O)Nc3cc(F)c(=O)n(CC(F)F)c3)sc2Cl)c1 [Compound 42c] | > 10000 | – | 5080 | – | 203 | 477
O=C(Nc1cc(F)c(=O)n(CC(F)F)c1)c1cc(C#Cc2cn3c(n2)COCC3)c(Cl)s1 [Compound 90d] | > 10000 | 1390 | > 10000 | 2710 | – | –

Further lines, results first:

IC50 (H358 cells) [nM] | IC50 [1, 2] [nM] | IC50 (A549 cells) [nM] | IC50 (FL-SMARCA4; FL-SMARCA4 IC50) [nM] | IC50 ([1]; Table 3c.1) [nM] | IC50 (FL-SMARCA4; [3]) [nM] | Compound
> 10000 | – | 1500 | – | 44.7 | 178 | O=C(Nc1cc(F)c(=O)n(CC(F)F)c1)c1cc(C#CC2CCOC2)c(Cl)s1 (stereo not shown) [Compound 58c]
8560 | 101 | 3950 | 512 | – | – | N#Cc1cc(NC(=O)c2cc(Cl)c(C(F)(F)F)s2)cn(CC(F)F)c1=O [Compound 86d]
> 10000 | – | 3610 | – | 20.9 | 99.9 | NC(=O)c1cccc(C#Cc2cc(C(=O)Nc3cc(F)c(=O)n(CC(F)F)c3)sc2Cl)c1 [Compound 57c]
> 10000 | – | 6010 | – | 847 | 2930 | O=C(Nc1cc(F)c(=O)n(CC(F)F)c1)c1cc(C#CC2COC2)cs1 [Compound 73c]
> 10000 | – | > 10000 | – | 30800 | 36200 | O=C(Nc1cc(C2COC2)c(=O)n(CC(F)F)c1)c1cc(F)c(Cl)s1 [Compound 155c]
> 10000 | 46.1 | 2890 | 165 | – | – | O=C(Nc1cc(F)c(=O)n(CC(F)F)c1)c1cc(C#C[C@H]2C[C@H](CO)C2)c(Cl)s1 [Compound 133d]
> 10000 | 481 | 5760 | 1310 | – | – | CNC(=O)C#Cc1cc(C(=O)Nc2cc(F)c(=O)n(CC(F)F)c2)sc1Cl [Compound 72d]
> 10000 | – | 1410 | – | 65 | 177 | O=C(Nc1cc(F)c(=O)n(CC(F)F)c1)c1cc(Cl)c(Cl)s1 [Compound 47c]
> 10000 | – | 1370 | – | 78 | 143 | Cc1ncc(C#Cc2cc(C(=O)Nc3cc(F)c(=O)n(CC(F)F)c3)sc2Cl)s1 [Compound 39c]
> 10000 | – | 1370 | – | 12.7 | 79.7 | N#Cc1sc(C(=O)Nc2cc(F)c(=O)n(CC(F)F)c2)cc1C#CC1COC1 [Compound 177c]
> 10000 | 334 | > 10000 | 1060 | – | – | O=C(Nc1cc(F)c(=O)n(CC(F)F)c1)c1cc(C#Cc2cnc3n2CCOC3)c(Cl)s1 [Compound 95d]
> 10000 | – | 1290 | – | 56.8 | 143 | O=C(Nc1cc(F)c(=O)n(CC(F)F)c1)c1cc(C#C[C@@H]2CCOC2)c(Cl)s1 [Compound 79c]
> 10000 | > 50000 | > 10000 | > 50000 | – | – | N#Cc1cc(C(=O)Nc2cc(OC(F)(F)F)c(=O)n(CC(F)F)c2)sc1C(F)(F)F [Compound 103d]
> 10000 | 978 | > 10000 | 4990 | – | – | N#Cc1cc(C(=O)Nc2cc(F)c(=O)n(CC(F)F)c2)sc1C1CC1 [Compound 87d]
> 10000 | 26.6 | 2040 | 120 | – | – | N#Cc1cc(C(=O)Nc2cc(F)c(=O)n(CC(F)F)c2)sc1C(F)F [Compound 69d]
> 10000 | 112 | 2730 | 372 | – | – | O=C(Nc1cc(F)c(=O)n(CC(F)F)c1)c1cc(C#CC2COCCO2)c(Cl)s1 (stereo not shown) [Compound 114d]
> 10000 | – | 458 | – | 6.08 | 8.17 | CC(=O)Nc1cc(C#Cc2cc(C(=O)Nc3cc(F)c(=O)n(CC(F)F)c3)sc2Cl)ccn1 [Compound 143c]
